The test deals with K562 human chronic myeloid leukaemia cells. Kind of test: In vitro cytotoxicity, MTT assay in K562 cells. It counts as cell-based. How it is done: K562 human chronic myeloid leukaemia cells were maintained in RPM1 1640 medium supplemented with 10% fetal calf serum and 2 mM glutamine at 37° C. in a humidified atmosphere containing 5% CO2 and were incubated with a specified dose of drug for 1 hour or 96 hours at 37° C. in the dark. The incubation was terminated by centrifugation (5 min, 300 g) and the cells were washed once with drug-free medium. Following the appropriate drug treatment, the cells were transferred to 96-well microtiter plates (10^4 cells per well, 8 wells per sample). Plates were then kept in the dark at 37° C. in a humidified atmosphere containing 5% CO2. The assay is based on the ability of viable cells to reduce a yellow soluble tetrazolium salt, 3-(4,5-dimethylthiazol-2-yl)-2,5-diphenyl-2H-tetrazolium bromide (MTT, Aldrich-Sigma), to an insoluble purple formazan precipitate. Following incubation of the plates for 4 days (to allow control cells to increase in number by approximately 10 fold), 20 μL of MTT solution (5 mg/mL in phosphate-buffered saline) was added to each well and the plates further incubated for 5 h. The plates were then centrifuged for 5 min at 300 g and the bulk of the medium pipetted from the cell pellet leaving 10-20 μL per well. DMSO (200 μL) was added to each well and the samples agitated to ensure complete mixing. The optical density was then read at a wavelength of 550 nm on a Titertek Multiscan ELISA plate reader, and a dose-response curve was constructed. For each curve, an IC50 value was read as the dose required to reduce the final optical density to 50% of the control value.
On the technique in general: Formazan colour is commonly taken as a measure of viable cells.

The structures appear in SMILES notation.

`COc1ccc(C2=CN3C(=O)c4cc(OC)c(OCCCOc5cc6c(cc5OC)C(=O)N5C=C(c7ccc(OC)cc7)C[C@H]5C=N6)cc4N=C[C@@H]3C2)cc1` [ZC-207, 1,1′-[[(Propane-1,3-diyl)dioxy]bis[(11aS)-7-methoxy-2-(p-methoxybenzene)-1,11a-dihydro-5H-pyrrolo[2,1-c][1,4]benzodiazepine-5-one]]] returned a half-inhibitory concentration (IC50) (K562, 1 h, 1 hour incubation) of 5.3 ± 4.9 nM.

Take `C/C=C/C1=CN2C(=O)c3cc(OC)c(OC)cc3N=C[C@@H]2C1` [Compound 30q, (11aS)-7,8-Dimethoxy-2-(1-propenyl)-1,11a-dihydro-5H-pyrrolo[2,1-c][1,4]benzodiazepin-5-one]: the IC50 is, setting by setting: (K562, 96 h, 96 hour incubation period, threshold less than 10 nM) less than 10 nM; (K562, 96 h, 96 hour incubation period, threshold less than 1 μM) less than 1000 nM.

For `COc1cc2c(cc1OCCCOc1cc3c(cc1OC)C(=O)N1C=C(/C=C/C(=O)N(C)C)C[C@H]1C=N3)N=C[C@@H]1CC(/C=C/C(=O)N(C)C)=CN1C2=O`, half-maximal inhibition (K562, 1 h, 1 hour incubation) (IC50) required 3800 ± 440 nM.

`COc1cc2c(cc1OCCCOc1cc3c(cc1OC)C(=O)N1C=C(C#Cc4ccccc4)C[C@H]1C=N3)N=C[C@@H]1CC(C#Cc3ccccc3)=CN1C2=O` [ZC-209]: the IC50 (K562, 1 h, 1 hour incubation) is less than 10 nM.

With `C/C=C/C1=CN2C(=O)c3cc(OC)c(OCCCOc4cc5c(cc4OC)C(=O)N4C=C(/C=C/C)C[C@H]4C=N5)cc3N=C[C@@H]2C1` [ZC-211], the IC50 (1 hour incubation) is less than 10 nM.

As a reminder, the IC50 is the point on the concentration scale where inhibition reaches its midpoint. Higher therefore signals weaker potency in that assay.

The values above are taken from patent publication US7741319B2 (Spirogen Limited, priority 2004, dated 2010).
